Measurements from patent publication US20090275634A1 (priority 2006, published 2009).

Legend:
peritoneal macrophages [1] = type: cell-based, C57BL6 mice
peritoneal macrophages [2] = type: cell-based, C57BL6 mice; remark: listed apart in the source
[3] = tested on: peritoneal macrophages derived from MyD88 KO mice; type: cell-based, MyD88 KO mice (C57BL6 background)
[4] = tested on: peritoneal macrophages from TLR9 KO mice; type: cell-based
[5] = tested on: peritoneal macrophages derived from MyD88 KO mice; type: cell-based, MyD88 KO mice (C57BL6 background); remark: listed apart in the source

5′-CTGCCACGTTCTCCTGCA*C*C*-3′ [nuclease resistant EN101]
number of MAC-1 positive cells (peritoneal macrophages [1]): minor effect
survival/proliferation of total and activated peritoneal macrophages (peritoneal macrophages [1]; 72 hr): inhibited
MIP-2 secretion from PMs (peritoneal macrophages [2]): inhibited
levels of MIP-2 in the supernatants of PM (peritoneal macrophages [2]): strongly elevated
secretion of IL-6 from activated PMs (peritoneal macrophages [2]): did not induce secretion
secretion of TNF-α from activated PMs (peritoneal macrophages [2]): did not induce secretion
number of MAC-1 positive cells [3]: reduced significantly
number of total and MAC-1 positive cells [4]: reduced significantly
effect on MIP-2 levels in the supernatants of PMs [5]: almost totally inhibited
